Read-outs that look alike come from different tables or passages of the source.
Tests used:
Mcl-1 = Mcl-1 (Homo sapiens (Human), UniProt Q07820); test: Fluorescence polarization anisotropy (FPA) competition assay, FITC-Bak or FITC-Bim BH3 peptide; assay type: binding; details: read-out: Ki for Inhibition of Mcl-1 by FPA assay
[1] = test system: H929 human cancer cell lines; test: Cellular viability / proliferation (Cell TiterGlo, 72 h); assay type: cell-based
How it was run: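 Top dose 50 μM, serially diluted 2-fold, applied one day after seeding (1,000 cells/well, 10% FBS), DMSO below 1%.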

[2] = Homo sapiens, NCI-H929, 72 h, read-out: GI50 on cellular proliferation of H929 human cancer cell lines, H929 cells, 72 h, Cell TiterGlo, 10% FBS
[3] = H929 cells, 72 h, Cell TiterGlo, 10% FBS, read-out: GI50 on cellular proliferation of H929 human cancer cell lines

Chain of Mcl-1 (Q07820 172-327): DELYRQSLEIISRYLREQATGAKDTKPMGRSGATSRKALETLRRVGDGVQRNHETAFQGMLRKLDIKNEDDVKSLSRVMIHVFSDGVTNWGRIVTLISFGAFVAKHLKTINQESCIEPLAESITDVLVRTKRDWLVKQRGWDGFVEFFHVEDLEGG

Row | SMILES | Ki (Mcl-1) [nM] | GI50 [1, 2] [nM] | GI50 [1, 3] [nM] | GI50 ([1]; read-out: GI50 on cellular proliferation of H929 human cancer cell lines, H929 cells, 72 h, Cell TiterGlo, 10% FBS) [nM]
1 | Cc1cc(OCCCc2c3n(c4c(-c5c(C)nn(C)c5C)c(Cl)ccc24)[C@H](C)CN(c2nccc4cc(C(N)=O)ccc24)C3=O)cc(C)c1Cl [Example 375, (R)-1-(7-Chloro-10-(3-(4-chloro-3,5-dimethylphenoxy)propyl)-4-methyl-1-oxo-6-(1,3,5-trimethyl-1H-pyrazol-4-yl)-3,4-dihydropyrazino[1,2-a]indol-2(1H)-yl)isoquinoline-6-carboxamide] | 10 | 2500 | – | –
2 | Cc1cc(OCCCc2c3n(c4c(-c5c(C)n[nH]c5C)c(Cl)ccc24)[C@H](C)CN(c2cc(C(=O)O)c4ccn(C)c4c2)C3=O)cc(C)c1Cl [Example 70, (R)-6-(7-chloro-10-(3-(4-chloro-3,5-dimethylphenoxy)propyl)-6-(3,5-dimethyl-1H-pyrazol-4-yl)-4-methyl-1-oxo-3,4-dihydropyrazino[1,2-a]indol-2(1H)-yl)-1-methyl-1H-indole-4-carboxylic acid] | < 1 | 2400 | – | –
3 | COCCN1CCN(Cc2nc(C)c(-c3c(Cl)ccc4c(CCCOc5cc(C)c(Cl)c(C)c5)c5n(c34)[C@H](C)CN(c3cn(C)c4ccc(C(=O)O)cc34)C5=O)c(C)n2)CC1 [Example 439, (R)-3-(7-Chloro-10-(3-(4-chloro-3,5-dimethylphenoxy)propyl)-6-(2-((4-(2-methoxyethyl)piperazin-1-yl)methyl)-4,6-dimethylpyrimidin-5-yl)-4-methyl-1-oxo-34-dihydropyrazino[1,2-a]indol-2(1H)-yl)-1-methyl-1H-indole-5-carboxylic acid] | 1.9 | – | < 200 | –
4 | Cc1cc(N2C[C@@H](C)n3c(c(CCCOc4cc(C)c(Cl)c(C)c4)c4ccc(Cl)c(-c5c(C)ncnc5C)c43)C2=O)c2c(c1)cc(C(N)=O)n2Cc1ccccn1 [Example 379, (R)-7-(7-chloro-10-(3-(4-chloro-3,5-dimethylphenoxy)propyl)-6-(4,6-dimethylpyrimidin-5-yl)-4-methyl-1-oxo-3,4-dihydropyrazino[1,2-a]indol-2(1H)-yl)-5-methyl-1-(pyridin-2-ylmethyl)-1H-indole-2-carboxamide] | 3.6 | 560 | – | –
5 | Cc1cc(OCCCc2c3n(c4c(-c5c(C)nn(C)c5C)c(Cl)ccc24)[C@H](C)CN(c2ccc(C(=O)O)c4ccn(C)c24)C3=O)cc(C)c1Cl [Example 52, (R)-7-(7-chloro-10-(3-(4-chloro-3,5-dimethylphenoxy)propyl)-4-methyl-1-oxo-6-(1,3,5-trimethyl-1H-pyrazol-4-yl)-3,4-dihydropyrazino[1,2-a]indol-2(1H)-yl)-1-methyl-1H-indole-4-carboxylic acid] | < 1 | 470 | – | –
6 | Cc1cc(OCCCc2c3n(c4c(-c5c(C)nn(C)c5C)c(Cl)ccc24)CCCN(c2cc(C(=O)O)c4ccn(CCN5CCOCC5)c4c2)C3=O)cc(C)c1Cl [Example 31, 6-(8-chloro-11-(3-(4-chloro-3,5-dimethylphenoxy)propyl)-1-oxo-7-(1,3,5-trimethyl-1H-pyrazol-4-yl)-4,5-dihydro-1H-[1,4]diazepino[1,2-a]indol-2(3H)-yl)-1-(2-morpholinoethyl)-1H-indole-4-carboxylic acid] | < 1 | 1800 | – | –
7 | Cc1cc(OCCCc2c3n(c4c(-c5c(C)nn(C)c5C)c(Cl)ccc24)[C@H](C)CN(c2ccc(OCc4ccccc4)c4c2cc(C(=O)O)n4C)C3=O)cc(C)c1Cl [Example 312, (M, R)-7-(benzyloxy)-4-(7-chloro-10-(3-(4-chloro-3,5-dimethylphenoxy)propyl)-4-methyl-1-oxo-6-(1,3,5-trimethyl-1H-pyrazol-4-yl)-3,4-dihydropyrazino[1,2-a]indol-2(1H)-yl)-1-methyl-1H-indole-2-carboxylic acid] | 1.9 | – | 5700 | –
8 | Cc1cc(OCCCc2c3n(c4c(-c5c(C)nn(C)c5C)c(Cl)ccc24)[C@H](C)CN(c2cccc4cccc(C(=O)O)c24)C3=O)cc(C)c1Cl [Example 191, (R)-8-(7-Chloro-10-(3-(4-chloro-3,5-dimethylphenoxy)propyl)-4-methyl-1-oxo-6-(1,3,5-trimethyl-1H-pyrazol-4-yl)-3,4-dihydropyrazino[1,2-a]indol-2(1H)-yl)-1-naphthoic acid] | < 1 | 3200 | – | –
9 | Cc1cc(OCCCc2c3n(c4c(-c5c(C)nn(C)c5C)c(Cl)ccc24)[C@H](C)CN(c2ccc(C(=O)O)c4c2ccn4C)C3=O)cc(C)c1Cl [Example 51, (R)-4-(7-chloro-10-(3-(4-chloro-3,5-dimethylphenoxy)propyl)-4-methyl-1-oxo-6-(1,3,5-trimethyl-1H-pyrazol-4-yl)-3,4-dihydropyrazino[1,2-a]indol-2(1H)-yl)-1-methyl-1H-indole-7-carboxylic acid] | < 1 | 1500 | – | –
10 | Cc1cc(N2C[C@@H](C)n3c(c(CCCOc4cc(C)c(Cl)c(C)c4)c4ccc(Cl)c(-c5c(C)nn(C)c5C)c43)C2=O)c2c(c1)cc(C(N)=O)n2C [Example 332, (R)-7-(7-Chloro-10-(3-(4-chloro-3,5-dimethylphenoxy)propyl)-4-methyl-1-oxo-6-(1,3,5-trimethyl-1H-pyrazol-4-yl)-3,4-dihydropyrazino[1,2-a]indol-2(1H)-yl)-1,5-dimethyl-1H-indole-2-carboxamide] | 2.8 | 670 | – | –
11 | Cc1cc(OCCCc2c3n(c4c(-c5c(C)ncnc5C)c(Cl)ccc24)CCCN(c2cn(C)c4cc(C(=O)O)ccc24)C3=O)cc(C)c1Cl [Example 176, 3-[8-Chloro-11-[3-(4-chloro-3,5-dimethyl-phenoxy)propyl]-7-(4,6-dimethylpyrimidin-5-yl)-1-oxo-4,5-dihydro-3H-[1,4]diazepino[1,2-a]indol-2-yl]-1-methyl-indole-6-carboxylic acid] | < 1 | 410 | – | –
12 | Cc1cc(OCCCc2c3n(c4c(-c5c(C)ncnc5C)c(Cl)ccc24)[C@H](C)CN(c2cc(C(=O)O)c4ccn(C)c4c2)C3=O)cc(C)c1Cl [Example 152, 6-[(4R)-7-chloro-10-[3-(4-chloro-3,5-dimethyl-phenoxy)propyl]-6-(4,6-dimethylpyrimidin-5-yl)-4-methyl-1-oxo-3,4-dihydropyrazino[1,2-a]indol-2-yl]-1-methyl-indole-4-carboxylic acid] | < 1 | 850 | – | –
13 | Cc1nnc(Cn2c(C(=O)O)cc3cccc(N4C[C@@H](C)n5c(c(CCCOc6cc(C)c(Cl)c(C)c6)c6ccc(Cl)c(-c7c(C)nn(C)c7C)c65)C4=O)c32)o1 [Example 315, 7-[(4R)-7-chloro-10-[3-(4-chloro-3,5-dimethyl-phenoxy)propyl]-4-methyl-1-oxo-6-(1,3,5-trimethylpyrazol-4-yl)-3,4-dihydropyrazino[1,2-a]indol-2-yl]-1-[(5-methyl-1,3,4-oxadiazol-2-yl)methyl]indole-2-carboxylic acid] | < 1 | 2800 | – | –
14 | Cc1cc(OCCCc2c3n(c4c(-c5c(C)nn(C)c5C)c(Cl)ccc24)[C@H](C)CN(c2ccnc4c2cc(C(=O)O)n4C)C3=O)cc(C)c1Cl [Example 169, (R)-4-(7-chloro-10-(3-(4-chloro-3,5-dimethylphenoxy)propyl)-4-methyl-1-oxo-6-(1,3,5-trimethyl-1H-pyrazol-4-yl)-3,4-dihydropyrazino[1,2-a]indol-2(1H)-yl)-1-methyl-1H-pyrrolo[2,3-b]pyridine-2-carboxylic acid] | < 1 | 2600 | – | –
15 | Cc1cc(OCCCc2c3n(c4c(-c5c(C)nc(CN6CCC(O)C6)nc5C)c(Cl)ccc24)[C@H](C)CN(c2cn(C)c4ccc(C(=O)O)cc24)C3=O)cc(C)c1Cl (stereo partly drawn) [Example 397, 3-((4R)-7-Chloro-10-(3-(4-chloro-3,5-dimethylphenoxy)propyl)-6-(2-((3-hydroxypyrrolidin-1-yl)methyl)-4,6-dimethylpyrimidin-5-yl)-4-methyl-1-oxo-3,4-dihydropyrazino[1,2-a]indol-2(1H)-yl)-1-methyl-1H-indole-5-carboxylic acid] | 1.2 | 340 | – | –
16 | Cc1cc(OCCCc2c3n(c4c(-c5c(C)nn(C)c5C)c(Cl)ccc24)[C@H](C)CN(c2cc(Cl)cc4cc(C(=O)O)oc24)C3=O)cc(C)c1Cl [Example 259, (R)-5-Chloro-7-(7-chloro-10-(3-(4-chloro-3,5-dimethylphenoxy)propyl)-4-methyl-1-oxo-6-(1,3,5-trimethyl-1H-pyrazol-4-yl)-3,4-dihydropyrazino[1,2-a]indol-2(1H)-yl)benzofuran-2-carboxylic acid] | < 1 | – | – | 3500
17 | Cc1cc(OCCCc2c3n(c4c(-c5c(C)nn(C)c5C)c(Cl)ccc24)[C@H](C)CN(c2cccc4cc(C(=O)O)n(Cc5cccnc5)c24)C3=O)cc(C)c1Cl [Example 245, 7-[(4R)-7-chloro-10-[3-(4-chloro-3,5-dimethyl-phenoxy)propyl]-4-methyl-1-oxo-6-(1,3,5-trimethylpyrazol-4-yl)-3,4-dihydropyrazino[1,2-a]indol-2-yl]-1-(3-pyridylmethyl)indole-2-carboxylic acid] | < 1 | 900 | – | –
18 | COc1ccc(N2C[C@@H](C)n3c(c(CCCOc4cc(C)c(Cl)c(C)c4)c4ccc(Cl)c(-c5c(C)nn(C)c5C)c43)C2=O)c2c1c(C(=O)O)cn2C [Example 445, (R)-7-(7-Chloro-10-(3-(4-chloro-3,5-dimethylphenoxy)propyl)-4-methyl-1-oxo-6-(1,3,5-trimethyl-1H-pyrazol-4-yl)-3,4-dihydropyrazino[1,2-a]indol-2(1H)-yl)-4-methoxy-1-methyl-1H-indole-3-carboxylic acid] | 2.2 | 820 | – | –

— patent US11596639B2, “Substituted indole Mcl-1 inhibitors” (Vanderbilt University, priority 2016, dated 2023)
